Experimental data published in patent US20250206738A1, “WRN INHIBITORS” (Nimbus Wadjet, Inc., priority 2023, published 2025).
pEC50, pIC50: −log10 of the molar value. Where two headings read alike, the source gives them in different places.

Assays:
[1] = target: T1, human Werner helicase (WRN, Uniprot Q14191, amino acids 517-1235 with L1074F point mutation; WRN-BV08) (Homo sapiens, UniProt Q14191, L1074F); assay: WRN (BV08) ADP-Glo assay; type: biochemical; details: WRN-BV08 (aa 517-1235, L1074F); read-out: ADP-Glo_hWRN_IC50
T1 construct: Uniprot Q14191, amino acids 517-1235 with L1074F point mutation; 8xHis (C, cleaved yes); TEV cleavage site (ENLYFQG) (C, cleaved yes); made in house; host or cells: Sf9 insect cells (baculovirus, pFastBac)
How it was run: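 WRN 517-1235 (L1074F, untagged, Sf9-expressed), 0.15 nM, preincubated with compound 15 min at 25 °C, then 60 min with […] and 0.1 nM DNA duplex in Bicine pH 7.5, 1 mM MgCl2, 1% DMSO. ADP-Glo luminescence; % inhibition vs NSC-617145 control, four-parameter IC50 fit.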

[2] = test system: p21 induction in HCT 116 cells; assay: p21 induction in cells (In-Cell Western, p21/GAPDH ratio); type: cell-based; details: 24 h compound incubation, read-out: P21_EC50
How it was run: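 HCT 116 cells treated 24 h at 37° C with 11-point, 2-fold dilutions starting typically at 10 μM, in duplicate. Fixed cells immunostained for p21 and GAPDH; 800/700 nm ratio normalised between DMSO and reference WRN inhibitor controls as percent activation. EC50 from non-linear regression.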

T1 sequence (Q14191 with tags, fused parts or gaps L1074F): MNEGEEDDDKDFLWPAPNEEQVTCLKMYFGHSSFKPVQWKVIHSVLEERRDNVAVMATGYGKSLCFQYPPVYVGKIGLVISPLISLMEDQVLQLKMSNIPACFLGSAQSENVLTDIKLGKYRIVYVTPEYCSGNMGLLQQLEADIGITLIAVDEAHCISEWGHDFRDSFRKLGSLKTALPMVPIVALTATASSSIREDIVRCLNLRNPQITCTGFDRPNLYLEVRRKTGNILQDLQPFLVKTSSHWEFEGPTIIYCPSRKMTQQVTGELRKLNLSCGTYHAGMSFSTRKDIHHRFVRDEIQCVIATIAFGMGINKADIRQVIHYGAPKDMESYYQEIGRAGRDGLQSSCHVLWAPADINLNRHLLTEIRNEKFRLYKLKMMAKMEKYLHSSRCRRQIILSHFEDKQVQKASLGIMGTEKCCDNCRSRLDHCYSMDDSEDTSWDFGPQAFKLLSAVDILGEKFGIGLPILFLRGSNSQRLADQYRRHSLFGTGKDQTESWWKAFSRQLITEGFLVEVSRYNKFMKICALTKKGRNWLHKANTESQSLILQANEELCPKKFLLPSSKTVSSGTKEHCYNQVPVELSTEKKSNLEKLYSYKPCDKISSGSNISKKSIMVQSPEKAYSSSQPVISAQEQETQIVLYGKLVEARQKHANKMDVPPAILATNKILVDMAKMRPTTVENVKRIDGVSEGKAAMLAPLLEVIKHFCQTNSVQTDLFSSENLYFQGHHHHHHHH

SMILES: CCc1c(N2CCN(C(=O)c3c(O)ccc4ncoc34)[C@H]3CC[C@@H]32)c(=O)c2nc(N(C)C)cnc2n1CC(=O)NC12CC(C(C)C)(C1)C2 [I-218, 2-(2-(dimethylamino)-6-ethyl-7-((1S,6S)-5-(6-hydroxybenzo[d]oxazole-7-carbonyl)-2,5-diazabicyclo[4.2.0]octan-2-yl)-8-oxopyrido[2,3-b]pyrazin-5(8H)-yl)-N-(3-isopropylbicyclo[1.1.1]pentan-1-yl)acetamide]
- pIC50 [1]: 7.30 to 8.30
- pEC50 ([2]; Homo sapiens, HCT-116, 24 h): 5.70 to 6.30

SMILES: CCc1c(N2CCN(C(=O)c3ncnc(C)c3O)[C@H]3CC[C@@H]32)c(=O)c2nc(N(C)C)cnc2n1CC(=O)NC12CC(C(F)(F)F)(C1)C2 (relative stereo) [I-2, rel-2-(2-(dimethylamino)-6-ethyl-7-((1S,6S)-5-(5-hydroxy-6-methylpyrimidine-4-carbonyl)-2,5-diazabicyclo[4.2.0]octan-2-yl)-8-oxopyrido[2,3-b]pyrazin-5(8H)-yl)-N-(3-(trifluoromethyl)bicyclo[1.1.1]pentan-1-yl)acetamide]
- pIC50 [1]: 6.30 to 7.00
- pEC50 ([2]; Homo sapiens, HCT-116, 24 h): < 5.30

SMILES: CCc1c(N2CCN(C(=O)c3c(OC)ncc(C)c3O)[C@H]3CC[C@@H]32)c(=O)c2nc(N(C)C)cnc2n1CC(=O)NC12CC(C3CC3)(C1)C2 [I-233, N-(3-cyclopropylbicyclo[1.1.1]pentan-1-yl)-2-(2-(dimethylamino)-6-ethyl-7-((1S,6S)-5-(4-hydroxy-2-methoxy-5-methylnicotinoyl)-2,5-diazabicyclo[4.2.0]octan-2-yl)-8-oxopyrido[2,3-b]pyrazin-5(8H)-yl)acetamide]
- pIC50 [1]: 7.30 to 8.30
- pEC50 ([2]; Homo sapiens, HCT-116, 24 h): 5.70 to 6.30

SMILES: CCc1c(N2CCN(C(=O)c3ncnc(C)c3O)[C@H]3CC[C@@H]32)c(=O)c2nc(C)c(C)nc2n1CC(=O)NC12CC(C3CC3)(C1)C2 [I-227, N-(3-cyclopropylbicyclo[1.1.1]pentan-1-yl)-2-(6-ethyl-7-((1S,6S)-5-(5-hydroxy-6-methylpyrimidine-4-carbonyl)-2,5-diazabicyclo[4.2.0]octan-2-yl)-2,3-dimethyl-8-oxopyrido[2,3-b]pyrazin-5(8H)-yl)acetamide]
- pIC50 [1]: 7.30 to 8.30
- pEC50 ([2]; Homo sapiens, HCT-116, 24 h): 5.70 to 6.30

SMILES: CCc1c(N2CCN(C(=O)c3c(OC)ncc(C4CCOC4)c3O)CC2)c(=O)c2nn(-c3ccnc(OC)c3)nc2n1CC(=O)NC12CC(C(C)C)(C1)C2 (single isomer, unassigned) [I-65]
- pIC50 [1]: 7.30 to 8.30
- pEC50 [2]: ≥ 6.30

SMILES: CCc1c(N2CCN(C(=O)c3c(O)ccc4ncoc34)CC2)c(=O)n2nc(-c3ccnc(OC)c3)nc2n1CC(=O)NC12CC(C(F)(F)C(F)F)(C1)C2 [I-41, 2-(5-ethyl-6-(4-(6-hydroxybenzo[d]oxazole-7-carbonyl)piperazin-1-yl)-2-(2-methoxypyridin-4-yl)-7-oxo-[1,2,4]triazolo[1,5-a]pyrimidin-4(7H)-yl)-N-(3-(1,1,2,2-tetrafluoroethyl)bicyclo[1.1.1]pentan-1-yl)acetamide]
- pIC50 [1]: 7.30 to 8.30
- pEC50 ([2]; Homo sapiens, HCT-116, 24 h): ≥ 6.30

SMILES: CCc1c(N2CCN(C(=O)c3cccc4ncoc34)[C@H]3CC[C@@H]32)c(=O)n2nc(C3=CCOCC3)nc2n1CC(=O)NC12CC(C(C)C)(C1)C2 [I-214, 2-(6-((1S,6S)-5-(benzo[d]oxazole-7-carbonyl)-2,5-diazabicyclo[4.2.0]octan-2-yl)-2-(3,6-dihydro-2H-pyran-4-yl)-5-ethyl-7-oxo-[1,2,4]triazolo[1,5-a]pyrimidin-4(7H)-yl)-N-(3-isopropylbicyclo[1.1.1]pentan-1-yl)acetamide]
- pIC50 [1]: 7.30 to 8.30
- pEC50 ([2]; Homo sapiens, HCT-116, 24 h): 5.70 to 6.30

SMILES: CCc1c(N2CCN(C(=O)c3ncnc(C)c3O)[C@H]3CC[C@@H]32)c(=O)c2nn(C3=CCOC(C)C3)nc2n1CC(=O)NC12CC(C3CC3)(C1)C2 (single isomer, unassigned) [I-170]
- pIC50 [1]: 7.30 to 8.30
- pEC50 [2]: ≥ 6.30

SMILES: CCc1c(N2CCN(C(=O)c3ncnc(C)c3O)C(C)(C)C2)c(=O)c2nn(-c3ccnc(OC)c3)nc2n1CC(=O)NC12CC(C3CC3)(C1)C2 [I-228, N-(3-cyclopropylbicyclo[1.1.1]pentan-1-yl)-2-(5-ethyl-6-(4-(5-hydroxy-6-methylpyrimidine-4-carbonyl)-3,3-dimethylpiperazin-1-yl)-2-(2-methoxypyridin-4-yl)-7-oxo-2,7-dihydro-4H-[1,2,3]triazolo[4,5-b]pyridin-4-yl)acetamide]
- pIC50 [1]: 7.30 to 8.30
- pEC50 ([2]; Homo sapiens, HCT-116, 24 h): 5.70 to 6.30

SMILES: CCc1c(N2CCN(C(=O)c3ncnc(C)c3O)CC2)c(=O)c2nc(-c3ccnc(OC)c3)oc2n1CC(=O)NC12CC(C(F)(F)F)(C1)C2 [I-16, 2-(5-ethyl-6-(4-(5-hydroxy-6-methylpyrimidine-4-carbonyl)piperazin-1-yl)-2-(2-methoxypyridin-4-yl)-7-oxooxazolo[5,4-b]pyridin-4(7H)-yl)-N-(3-(trifluoromethyl)bicyclo[1.1.1]pentan-1-yl)acetamide]
- pIC50 [1]: 7.30 to 8.30
- pEC50 ([2]; Homo sapiens, HCT-116, 24 h): < 5.30

SMILES: CCc1c(N2CCN(C(=O)c3c(O)ccc4ncoc34)CC2)c(=O)n2nc(N(C)C)nc2n1CC(=O)NC12CC(C3CCC3)(C1)C2 [I-203, N-(3-cyclobutylbicyclo[1.1.1]pentan-1-yl)-2-(2-(dimethylamino)-5-ethyl-6-(4-(6-hydroxybenzo[d]oxazole-7-carbonyl)piperazin-1-yl)-7-oxo-[1,2,4]triazolo[1,5-a]pyrimidin-4(7H)-yl)acetamide]
- pIC50 [1]: 7.30 to 8.30
- pEC50 ([2]; Homo sapiens, HCT-116, 24 h): ≥ 6.30

SMILES: CCc1c(N2CCN(C(=O)c3ncnc(C)c3O)[C@H]3CC[C@@H]32)c(=O)c2nc(N(C)C)cnc2n1CC(=O)NC1CC2(CC(C)C2)C1 (stereo partly drawn) [I-238, 2-(2-(dimethylamino)-6-ethyl-7-((1S,6S)-5-(5-hydroxy-6-methylpyrimidine-4-carbonyl)-2,5-diazabicyclo[4.2.0]octan-2-yl)-8-oxopyrido[2,3-b]pyrazin-5(8H)-yl)-N-(6-methylspiro[3.3]heptan-2-yl)acetamide]
- pIC50 [1]: 7.00 to 7.30
- pEC50 ([2]; Homo sapiens, HCT-116, 24 h): < 5.30

SMILES: CCc1c(N2CCN(C(=O)c3ncnc(C)c3O)CC2)c(=O)n2nc(C3=CCOCC3)nc2n1CC(=O)NC12CC(C3CC3)(C1)C2 [I-32, N-(3-cyclopropylbicyclo[1.1.1]pentan-1-yl)-2-(2-(3,6-dihydro-2H-pyran-4-yl)-5-ethyl-6-(4-(5-hydroxy-6-methylpyrimidine-4-carbonyl)piperazin-1-yl)-7-oxo-[1,2,4]triazolo[1,5-a]pyrimidin-4(7H)-yl)acetamide]
- pIC50 [1]: 7.30 to 8.30
- pEC50 ([2]; Homo sapiens, HCT-116, 24 h): 5.30 to 5.70

SMILES: CCc1c(N2CCN(C(=O)c3c(O)cc(OC)cc3OC)CC2)c(=O)c2nn(-c3ccnc(OC)c3)nc2n1CC(=O)NC12CC(C3CC3)(C1)C2 [I-132, N-{3-cyclopropylbicyclo[1.1.1]pentan-1-yl}-2-{5-ethyl-6-[4-(2-hydroxy-4,6-dimethoxybenzoyl)piperazin-1-yl]-2-(2-methoxypyridin-4-yl)-7-oxo-2H,4H,7H-[1,2,3]triazolo[4,5-b]pyridin-4-yl}acetamide]
- pIC50 [1]: 7.30 to 8.30
- pEC50 ([2]; Homo sapiens, HCT-116, 24 h): 5.30 to 5.70

SMILES: CCc1c(N2CCN(C(=O)c3ncc4c(c3O)CCO4)CC2)c(=O)n2nc(C3=CCOCC3)nc2n1CC(=O)NC12CC(C3CCC3)(C1)C2 [I-211, N-(3-cyclobutylbicyclo[1.1.1]pentan-1-yl)-2-(2-(3,6-dihydro-2H-pyran-4-yl)-5-ethyl-6-(4-(4-hydroxy-2,3-dihydrofuro[2,3-c]pyridine-5-carbonyl)piperazin-1-yl)-7-oxo-[1,2,4]triazolo[1,5-a]pyrimidin-4(7H)-yl)acetamide]
- pIC50 [1]: 7.30 to 8.30
- pEC50 ([2]; Homo sapiens, HCT-116, 24 h): 5.70 to 6.30

SMILES: CCc1c(N2CCN(C(=O)c3ncc4c(c3O)CCO4)CC2)c(=O)n2nc(C3=CCN(C(C)=O)CC3)nc2n1CC(=O)NC12CC(C(F)(F)F)(C1)C2 [I-11, 2-(2-(1-acetyl-1,2,3,6-tetrahydropyridin-4-yl)-5-ethyl-6-(4-(4-hydroxy-2,3-dihydrofuro[2,3-c]pyridine-5-carbonyl)piperazin-1-yl)-7-oxo-[1,2,4]triazolo[1,5-a]pyrimidin-4(7H)-yl)-N-(3-(trifluoromethyl)bicyclo[1.1.1]pentan-1-yl)acetamide]
- pIC50 [1]: 7.30 to 8.30
- pEC50 ([2]; Homo sapiens, HCT-116, 24 h): 5.30 to 5.70

SMILES: CCc1c(N2CCN(C(=O)c3ncnc(C)c3O)CC2)c(=O)n2nc(-c3ccnc(OC)c3)nc2n1CC(=O)NC12CC(C(C)C)(C1)C2 [I-40, 2-(5-ethyl-6-(4-(5-hydroxy-6-methylpyrimidine-4-carbonyl)piperazin-1-yl)-2-(2-methoxypyridin-4-yl)-7-oxo-[1,2,4]triazolo[1,5-a]pyrimidin-4(7H)-yl)-N-(3-isopropylbicyclo[1.1.1]pentan-1-yl)acetamide]
- pIC50 [1]: 7.30 to 8.30
- pEC50 ([2]; Homo sapiens, HCT-116, 24 h): ≥ 6.30

SMILES: CCc1c(N2CCN(C(=O)c3c(O)ccc4ncoc34)CC2)c(=O)n2nc(-c3ccnc(OC)c3)nc2n1CC(=O)NC12CC(C3CCC3)(C1)C2 [I-28, N-(3-cyclobutylbicyclo[1.1.1]pentan-1-yl)-2-(5-ethyl-6-(4-(6-hydroxybenzo[d]oxazole-7-carbonyl)piperazin-1-yl)-2-(2-methoxypyridin-4-yl)-7-oxo-[1,2,4]triazolo[1,5-a]pyrimidin-4(7H)-yl)acetamide]
- pIC50 [1]: ≥ 8.30
- pEC50 ([2]; Homo sapiens, HCT-116, 24 h): ≥ 6.30

SMILES: CCc1c(N2CCN(C(=O)c3cnn(C)c3)CC2)c(=O)n2nc(C3=CCOCC3)nc2n1CC(=O)NC1Cc2ccc(F)cc2C1 (centres unmarked) [I-248, 2-(2-(3,6-dihydro-2H-pyran-4-yl)-5-ethyl-6-(4-(1-methyl-1H-pyrazole-4-carbonyl)piperazin-1-yl)-7-oxo-[1,2,4]triazolo[1,5-a]pyrimidin-4(7H)-yl)-N-(5-fluoro-2,3-dihydro-1H-inden-2-yl)acetamide]
- pIC50 [1]: 6.30 to 7.00
- pEC50 ([2]; Homo sapiens, HCT-116, 24 h): < 5.30
